Test results as given in ChEMBL document CHEMBL1201862, “PubChem BioAssay data set” (2004).
Active and inactive are the calls of the source.

Legend:
[1] = molecular target: FAD-linked sulfhydryl oxidase ALR (Homo sapiens, UniProt P55789); assay: inhibitors of human ALR sulfhydryl oxidase, dose response, biochemical, H2O2 detection, luminescence, cherry-pick (AID 493248)
[2] = molecular target: T1, Zinc finger protein mex-5 (Caenorhabditis elegans, UniProt Q9XUB2); assay: MEX-5/TCR-2 RNA interaction inhibitors, dose response, biochemical, C. elegans, fluorescence polarization (AID 1960)
T1 sequence (Q9XUB2 whole entry): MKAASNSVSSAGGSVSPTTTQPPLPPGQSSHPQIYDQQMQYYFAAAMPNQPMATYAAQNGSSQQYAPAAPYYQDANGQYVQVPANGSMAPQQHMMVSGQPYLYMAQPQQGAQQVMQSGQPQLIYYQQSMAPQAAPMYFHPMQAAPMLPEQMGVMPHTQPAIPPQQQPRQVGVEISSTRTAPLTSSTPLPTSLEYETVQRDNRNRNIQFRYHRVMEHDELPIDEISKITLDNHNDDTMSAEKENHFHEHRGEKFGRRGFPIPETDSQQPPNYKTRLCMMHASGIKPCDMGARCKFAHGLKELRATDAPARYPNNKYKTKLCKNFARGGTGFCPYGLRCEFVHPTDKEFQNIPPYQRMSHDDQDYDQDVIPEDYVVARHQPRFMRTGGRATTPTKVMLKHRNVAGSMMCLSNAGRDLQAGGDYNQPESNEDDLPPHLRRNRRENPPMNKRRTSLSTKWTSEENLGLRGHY

[3] = molecular target: T2, RNA-binding protein pos-1 (Caenorhabditis elegans, UniProt G5EF15); assay: inhibitors of POS-1/mex-3 RNA binding, dose response, biochemical, fluorescence polarization (AID 1964);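 further: purified POS-1 fused to maltose binding protein made in E. coli; potency of compounds blocking POS-1 binding to fluorescent RNA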
T2 sequence (G5EF15 whole entry): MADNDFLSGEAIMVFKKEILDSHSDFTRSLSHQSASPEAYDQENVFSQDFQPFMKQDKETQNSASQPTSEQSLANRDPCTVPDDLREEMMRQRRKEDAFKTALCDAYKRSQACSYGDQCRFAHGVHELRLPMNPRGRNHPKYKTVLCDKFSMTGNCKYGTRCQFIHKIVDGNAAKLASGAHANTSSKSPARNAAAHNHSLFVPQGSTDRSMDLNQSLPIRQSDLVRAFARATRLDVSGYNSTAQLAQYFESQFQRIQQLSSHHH

[4] = cytotoxicity toward NIH3T3 fibroblasts, dose response, counter-screen, cell-based, ATP luminescence, mouse fibroblasts (AID 2010); assay type: functional;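 further: cells exposed to compound for about 90 hours before reading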
[5] = molecular target: T3, High affinity choline transporter 1 (Homo sapiens, UniProt Q9GZV3); assay: CHT inhibitors, dose response, cell-based, 5-point CRC, membrane potential dye (AID 504840); assay type: functional
T3 sequence (Q9GZV3 whole entry): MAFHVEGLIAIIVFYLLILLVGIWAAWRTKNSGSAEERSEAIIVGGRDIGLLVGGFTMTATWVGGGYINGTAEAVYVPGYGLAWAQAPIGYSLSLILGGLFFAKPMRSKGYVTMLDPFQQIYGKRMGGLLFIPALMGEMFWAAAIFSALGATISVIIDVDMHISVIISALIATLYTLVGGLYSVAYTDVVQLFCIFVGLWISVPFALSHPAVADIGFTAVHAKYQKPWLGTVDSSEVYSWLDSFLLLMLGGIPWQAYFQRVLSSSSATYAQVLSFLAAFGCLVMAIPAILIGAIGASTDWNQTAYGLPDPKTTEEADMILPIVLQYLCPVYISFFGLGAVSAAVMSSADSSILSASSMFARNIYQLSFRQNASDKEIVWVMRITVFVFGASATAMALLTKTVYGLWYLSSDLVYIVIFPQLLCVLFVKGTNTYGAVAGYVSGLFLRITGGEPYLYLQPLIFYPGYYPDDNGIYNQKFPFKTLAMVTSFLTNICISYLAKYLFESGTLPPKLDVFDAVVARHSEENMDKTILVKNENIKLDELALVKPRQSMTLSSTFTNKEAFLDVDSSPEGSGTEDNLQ

[6] = inhibitors of intracellular T. cruzi replication, confirmation, NIH3T3 host cells, beta-gal luminescence (AID 2044); assay type: functional, cell-based;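 further: intracellular parasites grown in NIH/3T3 mouse fibroblasts as host cells; luminescent beta-galactosidase reporter signal from transgenic T. cruzi replicating inside host cells; inhibitors lower the luminescence signal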
[7] = microbe, parasite or virus in culture; assay type: functional; conditions: Mycobacterium tuberculosis
[8] = molecular target: T4, Rac GTPase-activating protein 1 (Homo sapiens, UniProt Q9H0H5); assay: MgcRacGAP GTPase-activating activity inhibitors, confirmation, biochemical, ADP Hunter fluorescence, primary and confirmatory (AID 624330); assay type: functional
T4 sequence (Q9H0H5 whole entry): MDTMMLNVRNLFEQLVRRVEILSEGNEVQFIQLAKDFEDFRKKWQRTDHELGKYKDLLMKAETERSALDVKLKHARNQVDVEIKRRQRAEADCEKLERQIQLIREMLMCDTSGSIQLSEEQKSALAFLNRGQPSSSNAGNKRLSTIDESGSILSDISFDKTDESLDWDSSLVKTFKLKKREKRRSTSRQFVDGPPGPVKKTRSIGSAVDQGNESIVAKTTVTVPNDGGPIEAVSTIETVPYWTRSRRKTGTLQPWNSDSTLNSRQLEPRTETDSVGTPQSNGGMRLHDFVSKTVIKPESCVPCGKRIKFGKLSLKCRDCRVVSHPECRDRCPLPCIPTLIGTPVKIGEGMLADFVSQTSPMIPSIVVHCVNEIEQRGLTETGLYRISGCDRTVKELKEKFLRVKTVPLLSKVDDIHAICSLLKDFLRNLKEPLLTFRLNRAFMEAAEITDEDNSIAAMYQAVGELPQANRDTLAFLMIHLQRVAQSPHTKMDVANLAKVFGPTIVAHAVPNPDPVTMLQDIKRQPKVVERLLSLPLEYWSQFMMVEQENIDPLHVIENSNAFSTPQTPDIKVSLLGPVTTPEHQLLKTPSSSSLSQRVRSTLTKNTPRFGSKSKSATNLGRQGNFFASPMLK

[9] = HEp-2 cell cytotoxicity, dose response, cytotoxicity control for RSV inhibitor project, HTS (AID 2410); assay type: functional; conditions: human respiratory syncytial virus
[10] = molecular target: T5, Polyadenylate-binding protein 1 (Homo sapiens, UniProt P11940); assay: PABP1 MLLE–PAM2 interaction inhibitors, dose response, miRNA deadenylation inhibitor project, biochemical, fluorescence polarization, Cy5-PAM2 peptide, secondary (AID 602260); assay type: functional; conditions: read-out: IC50_Mean
[11] = molecular target: T5, Polyadenylate-binding protein 1; assay: PABP1 MLLE–PAM2 binding inhibitor potency, dose response, biochemical, fluorescence polarization, FITC-PAM2 peptide (AID 602259); assay type: functional; conditions: read-out: IC50_Mean
[12] = Luminescence Cell-Based Dose Retest to Confirm Inhibitors of Cancer Stem Cells. [Related pubchem assays (depositor defined):AID2717, AID2721]; assay type: functional; conditions: Homo sapiens
Paired box protein Pax-8 = Paired box protein Pax-8 (Homo sapiens, UniProt Q06710); assay: inhibitors of PAX8-driven TPO luciferase reporter, dose response, RMG-I cells, cherry-pick (AID 687027); assay type: functional, cell-based;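 further: luciferase reporter driven by Pax8 target thyroperoxidase promoter measured by SteadyGlo luminescence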
P388 = assay: cells; assay type: functional; conditions: Mus musculus
P388/ADR = assay: cells; assay type: functional; conditions: Mus musculus
SN12K1 = assay: cells; assay type: functional; conditions: Homo sapiens

Chain of Paired box protein Pax-8 (Q06710 whole entry): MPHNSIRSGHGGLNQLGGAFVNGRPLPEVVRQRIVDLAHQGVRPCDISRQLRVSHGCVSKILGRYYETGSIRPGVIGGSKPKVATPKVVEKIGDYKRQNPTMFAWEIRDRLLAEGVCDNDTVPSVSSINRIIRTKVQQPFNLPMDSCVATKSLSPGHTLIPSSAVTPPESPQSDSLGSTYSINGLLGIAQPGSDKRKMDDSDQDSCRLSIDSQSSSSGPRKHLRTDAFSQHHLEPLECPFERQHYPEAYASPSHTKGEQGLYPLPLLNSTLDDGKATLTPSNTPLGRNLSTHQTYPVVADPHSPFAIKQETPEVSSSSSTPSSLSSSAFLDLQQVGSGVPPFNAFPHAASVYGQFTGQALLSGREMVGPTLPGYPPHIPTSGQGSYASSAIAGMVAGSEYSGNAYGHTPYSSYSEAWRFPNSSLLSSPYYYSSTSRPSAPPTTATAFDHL
Chain of FAD-linked sulfhydryl oxidase ALR (P55789 whole entry): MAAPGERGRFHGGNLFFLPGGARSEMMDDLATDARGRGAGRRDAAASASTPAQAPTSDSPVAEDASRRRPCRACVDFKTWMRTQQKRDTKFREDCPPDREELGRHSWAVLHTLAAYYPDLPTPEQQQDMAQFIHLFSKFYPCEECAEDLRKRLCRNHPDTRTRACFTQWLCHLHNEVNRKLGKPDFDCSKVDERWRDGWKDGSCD
T5 sequence (P11940 whole entry): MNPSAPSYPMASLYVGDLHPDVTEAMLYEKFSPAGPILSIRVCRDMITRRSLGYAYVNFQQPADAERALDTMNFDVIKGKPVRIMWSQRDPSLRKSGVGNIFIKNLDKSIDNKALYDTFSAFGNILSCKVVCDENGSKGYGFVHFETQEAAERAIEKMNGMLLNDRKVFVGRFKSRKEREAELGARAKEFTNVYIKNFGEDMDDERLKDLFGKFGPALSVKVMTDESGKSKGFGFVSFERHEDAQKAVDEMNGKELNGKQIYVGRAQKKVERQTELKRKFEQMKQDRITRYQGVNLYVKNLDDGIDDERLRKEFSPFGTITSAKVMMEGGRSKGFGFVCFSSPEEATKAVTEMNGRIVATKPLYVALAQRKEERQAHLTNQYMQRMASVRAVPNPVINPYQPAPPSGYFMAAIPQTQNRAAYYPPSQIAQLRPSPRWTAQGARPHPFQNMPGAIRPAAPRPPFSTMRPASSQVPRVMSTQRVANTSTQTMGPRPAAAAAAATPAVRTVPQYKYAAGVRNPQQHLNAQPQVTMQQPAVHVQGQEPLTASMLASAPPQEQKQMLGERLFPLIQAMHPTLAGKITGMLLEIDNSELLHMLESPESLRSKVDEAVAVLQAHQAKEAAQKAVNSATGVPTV

SMILES: NNc1nc2ccc(F)cc2s1
- AC50 [1]: 4.94 µM (active)

SMILES: COc1ccc(N2CCN(C(=O)CCNS(=O)(=O)c3ccccc3)CC2)cc1
- AC50 [1]: 8.08 µM (active)

SMILES: CCCCC1=CC2=CC(=O)C(C)(OC(=O)c3ccc(Cl)nc3)C(=O)C2=CO1 (stereo not drawn)
- EC50 [2]: 21.6 µM (active)
- EC50 [3]: 21.7 µM (active)

SMILES: CN(CC(=O)Nc1cccc2ccccc12)C(=O)c1ccc(NC(=O)CC#N)cc1
- AC50 [1]: 6.29 µM (active)

SMILES: Fc1cccc(Cc2noc(CN3CCC(c4ccncc4)CC3)n2)c1
- EC50 [4]: > 60 µM (not active)
- IC50 [5]: 14.5 µM (active)
- EC50 [6]: 2.11 µM (active)

SMILES: O=C(CN1CCN(c2ccc(Cl)cc2)CC1)N1CCCC1
- AC50 [1]: 0.657 µM (active)

SMILES: COc1ccc(OC)c(C(=O)c2coc3ccc(O)c(CN4CCOCC4)c23)c1
- EC50 [2]: > 300 µM (not active)
- EC50 [3]: > 300 µM (not active)

SMILES: Cn1c(=O)c(-c2cc(O)[nH]n2)c(O)c2ccccc21
- EC50 [2]: 23.3 µM (active)
- EC50 [3]: > 300 µM (not active)

SMILES: O=C(c1ccc(Cl)c(S(=O)(=O)N2CCCC2)c1)N1CCN(c2ccccc2)CC1
- IC50 [5]: 6.61 µM (active)

SMILES: Cc1ccc2[nH]c(C(=O)O)c(-c3ccccc3)c2c1
- AC50 [1]: 4.49 µM (active)

SMILES: CN1C(=O)C(=Cc2ccc(Sc3ccccc3)o2)C(=O)N(C)C1=S
- EC50 [2]: > 300 µM (not active)
- EC50 [3]: > 300 µM (not active)

SMILES: CC(C)(C)C(=O)/C(=C\c1cccc([N+](=O)[O-])c1)n1cncn1
- CC50 [7]: 4.33 µM (active)

SMILES: CCOC(=O)c1cnc2c(C)cc(Cl)cc2c1N1CCN(C)CC1
- IC50 [5]: 11.5 µM (active)

SMILES: O=C(Nc1ccc(Nc2ccccc2)cc1)C1CC1
- IC50 [8]: 50.8 µM (active)
- AC50 [1]: 0.875 µM (active)

SMILES: CC(C)n1c(O)c(N=NC(=O)Cc2csc(N3CCOCC3)n2)c2ccccc21
- IC50 [5]: 13.5 µM (active)

SMILES: Cn1c(=O)[nH]c(=O)c2c1nc(Br)n2CCCSc1nc2ccccc2o1
- AC50 [1]: < 0.005 µM (active)
- EC50 [4]: 15.8 µM (active)
- EC50 [6]: 1.32 µM (active)

SMILES: Cc1cc(C)cc(NC(=O)c2ccc(Cn3nc(C)c(Cl)c3C)o2)c1
- CC50 [9]: 23.5 µM (active)
- CC50 [7]: > 40 µM (active)

SMILES: Cc1ccc(C)n1-c1ccc2c(c1)COC2=O
- EC50 [2]: > 300 µM (not active)
- EC50 [3]: > 300 µM (not active)

SMILES: Cc1nc2ccccc2c2nc3ccccc3n12
- CC50 [7]: > 40 µM (active)

SMILES: CCCC(=O)NC(=S)Nc1cccc(Cl)c1N1CCCC1
- IC50 [10]: > 66 µM (inactive)
- IC50 [11]: > 66 µM (inactive)
- AC50 [12]: 4.17 µM (active)

SMILES: COc1ccccc1C(=O)C1CCCN(C(=O)c2cccnc2SC)C1 (stereo not drawn)
- EC50 [2]: > 300 µM (not active)
- EC50 [3]: > 300 µM (not active)

SMILES: CCCCCCN1C(=O)NC(=O)/C(=C\NCCCn2ccnc2)C1=O
- EC50 [2]: > 300 µM (inconclusive)
- EC50 [3]: > 300 µM (not active)

SMILES: COc1ccc(C(=O)NCC(c2cccnc2)N2CCN(c3ccc(F)cc3)CC2)cc1OC (stereo not drawn)
- AC50 [1]: < 0.005 µM (active)

SMILES: CCO[C@H]1OC(C(=O)N2CCN(Cc3ccccc3)CC2)=C[C@@H](c2ccc(C(F)(F)F)cc2)[C@@H]1CCCO
- AC50 (Paired box protein Pax-8): 14.3 µM (active)

SMILES: NC(CSC(c1ccccc1)(c1ccccc1)c1ccccc1)C(=O)O (stereo not drawn)
- GI50 (P388): 0.494 µM (active)
- GI50 (P388/ADR): 5.43 µM (inactive)
- GI50 (SN12K1): 0.352 µM (active)

SMILES: NS(=O)(=O)OCCCCCCCOS(N)(=O)=O
- GI50 (P388): 35.1 µM (inactive)
- GI50 (P388/ADR): > 83 µM (inactive)
- GI50 (SN12K1): 273 µM (inactive)

SMILES: O=P(NCCCO)(OCc1ccccc1)N(CCCl)CCCl (stereo not drawn)
- GI50 (P388): > 100 µM (inactive)
- GI50 (P388/ADR): > 100 µM (inactive)
- GI50 (SN12K1): > 100 µM (inactive)

SMILES: CN1CCC23c4ccccc4NC1C21CCN(C)C3Nc2ccccc21
- GI50 (P388): 57.7 µM (inactive)
- GI50 (P388/ADR): > 254 µM (inactive)
- GI50 (SN12K1): 202 µM (inactive)

SMILES: N=C(N)SCc1cccc([N+](=O)[O-])c1
- GI50 (P388): 15.5 µM (inactive)
- GI50 (P388/ADR): 15.7 µM (inactive)
- GI50 (SN12K1): 32.7 µM (inactive)

SMILES: CC(=O)Oc1cc2c(cc1OC(C)=O)OCC(c1ccc(C)cc1)C2 (stereo not drawn)
- GI50 (P388): 2.87 µM (inactive)
- GI50 (P388/ADR): 3.05 µM (inactive)
- GI50 (SN12K1): 14 µM (inactive)

SMILES: CCCC#Cc1ccc([C@@H]2[C@H]3CN(S(=O)(=O)c4ccccc4F)CCCCN3[C@H]2CO)cc1
- AC50 (Paired box protein Pax-8): 22.4 µM (active)

SMILES: COc1cccc(-c2ccc3c(c2)[C@@H]2[C@@H](CCN2C(=O)NC2CCCCC2)[C@H](CO)N3C)c1
- AC50 (Paired box protein Pax-8): 10.9 µM (active)

SMILES: O=C(C[C@@H]1C[C@H]2c3cc(NC(=O)C4CCOCC4)ccc3O[C@H]2[C@H](CO)O1)NCc1ccc(Oc2ccccc2)cc1
- AC50 (Paired box protein Pax-8): 34.3 µM (active)

SMILES: c1cc2c3c(c1)c1cc4c(cc1c[n+]3CC2)OCO4 [ANHYDROLYCORINIUM CHLORIDE]
- GI50 (P388): 0.515 µM (active)
- GI50 (P388/ADR): 22 µM (inactive)
- GI50 (SN12K1): 1.95 µM (inactive)
